{"source": "paper PMC10906223", "about": "(JCI Insight, 2024)", "key": {"[1]": {"assay": "Microsomal stability assay, human liver microsomes", "format": "in vitro ADME", "conditions": "for Remaining in hepatic microsomes (100 at 0 min): human microsomes, Figure 5C", "method": "A total of 445 μL of the working solution was transferred into prewarmed incubation plates for treated (T60) and control (NCF60) measurements. After preincubation (10 minutes at 37°C with constant shaking), 54 μL was transferred to the blank plate, followed by 6 μL of NADPH and 180 μL quenching solution. In parallel, 5 μL of WCDD301 (100 μM) was added into incubation plates (T60 and NCF60) containing microsomes and mixed thoroughly (3 times). For the NCF60 plate, 50 μL of buffer was added, mixed (thoroughly, 3 times), shaken, and incubated at 37°C for 60 minutes. In the quenching plate T0, quenching solution (180 μL) and NADPH cofactor (6 μL) were added. For T60 plate, 54 μL of the mixture was placed into the quenching plate (for T0 point), followed by adding 44 μL NADPH cofactor with shaking incubation at 37°C for 60 minutes. Quenching solution (180 μL) was added to quenching plates at 5, 15, 30, 45, and 60 minutes, and 60 μL of sample was transferred from T60 plate per time point to the quenching plates. For the NCF60 plates, 60 μL sample from the NCF60 incubation plate was transferred to the quenching plate (containing quenching solution) at the 60-minute time point. After plates were shaken for 10 minutes and centrifuged (1,750g, 20 minutes at 4°C), 80 μL of the supernatant was transferred into 240 μL HPLC water for LC-MS/MS analysis. The following first-order kinetic equation was used to calculate half-life (T1/2): [drawing 3]; when\nThen, intrinsic clearance [CLint (microsomal; mic)] and hepatic clearance [CLint (liver)] were predicted using the following equations ([66]): […]"}, "[2]": {"tested_on": "mouse dispersed islet cells", "assay": "Immunofluorescence: EphA4 intensity in glucagon+ mouse dispersed islet cells;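 for EphA4 intensity: ImageJ intensity within ROI drawn around each glucagon+ cell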", "format": "cell-based", "method": "Coverslips were treated with WCDD301, preclustered Ephrin-A5 Fc, or preclustered Fc in the following sequential order: KRBH (11 mM glucose, 30 minutes), KRBH (1 mM glucose, 60 minutes), KRBH (1 mM glucose, 30 minutes), and KRBH (11 mM glucose, 60 minutes). After treatment, coverslips were washed once in PBS, fixed in 2% paraformaldehyde in PBS (30 minutes), and again washed in PBS. […] Following wash in PBS, coverslips were incubated in a mixture of Alexa Fluor 555 Phalloidin (Cell Signaling Technology, catalog 8953) and secondary antibodies (goat anti-rabbit Alexa Fluor 488, catalog A-21094, 1:1,000, Molecular Probes; and goat anti-mouse Alexa Fluor 633, catalog A21052, 1:1,000, Life Technologies) for 1 hour at RT. Both primary and secondary antibodies were diluted in blocking buffer containing 0.05% Tween 20. Coverslips were washed using PBS and counterstained by using DAPI (1:1,000) for 10 minutes. Following 2 washes in PBS, coverslips were mounted on glass slides using ProLong Glass Antifade Mountant (Invitrogen, catalog P36980). Images were captured using the Zeiss LSM880 microscope with a Plan-Apochromat 63× 1.4 NA objective lens by setting dual-band dichroic/filter for 405, 488, 561, and 633 nm laser excitation. For each slide, 25–30 fields of view were scanned, and in each field of view, 3–5 cells were imaged. […] Values of intensity were compared among groups using 1-way ANOVA, α = 0.05."}}, "note": "Where “and” joins values, the source holds several entries; their conditions need not be identical. Equal entries are not always repeated."}
{"compound": "CC(=O)OCC(N)(COC(C)=O)COC(C)=O", "note": "[WCDD301, 2-(acetoxymethyl)-2-aminopropane-1,3-diyl diacetate]", "values": [{"measurement": "Microsomal stability in human versus mouse preparation", "setting": "[1]; human higher than mouse", "value": "> 1.5", "unit": "fold"}, {"measurement": "Remaining in hepatic microsomes (100 at 0 min)", "setting": "[1]; 5 min", "value": 86.1}, {"measurement": "Remaining in hepatic microsomes (100 at 0 min)", "setting": "[1]; 15 min", "value": 78}, {"measurement": "Remaining in hepatic microsomes (100 at 0 min)", "setting": "[1]; 30 min", "value": 77.8}, {"measurement": "Remaining in hepatic microsomes (100 at 0 min)", "setting": "[1]; 45 min", "value": 77.5}, {"measurement": "Remaining in hepatic microsomes (100 at 0 min)", "setting": "[1]; 60 min", "value": 72.4}, {"measurement": "half-life at 1 µM", "setting": "[1]; human, liver microsomes", "value": "> 2.42", "unit": "h"}, {"measurement": "microsomal CLint at 1 µM", "setting": "[1]; human, liver microsomes, read-out: Intrinsic microsomal clearance", "value": "< 9.6", "unit": "µL/min/mg"}, {"measurement": "Hepatic clearance", "setting": "[1]; human, predicted from microsomal data", "value": "< 8.6", "unit": "mL/min/kg"}, {"measurement": "Effect on EphA4 intensity", "setting": "[2]; dispersed mouse islet cells", "value": "increased EphA4 intensity"}, {"measurement": "EphA4 intensity", "setting": "[2]; mouse cells, individual values, Figure 3H", "value": "35.0 and 29.0 and 43.3 and 17.8 and 36.0 and 30.0 and 27.0 and 37.0 and 31.0 and 41.7 and 27.2 and 38.0 and 32.0 and 32.1 and 39.0 and 33.0 and 19.7"}]}
